Measurements published in patent US20050002904A1, “Uses of vascular endothelial growth factor and type I collagen inducible protein (VCIP)” (priority 2003, published 2005).
Marks after values point to notes of the source that are not given here. Where no end group is shown, it is not given here.

Tests used:
endothelial cells [1] = assay: Adhesion blocking assay on GST-VCIP-RGD-coated dishes; type: cell-based, human
PAP2b = target: T1, PAP2b (Homo sapiens, UniProt O14495); settings: membrane fraction of 293T cells over-expressing PAP2b; cited from earlier work
T1 construct: expressed in transfected cells; host or cells: 293T cells (membrane fraction)
T1 sequence (O14495 1-311): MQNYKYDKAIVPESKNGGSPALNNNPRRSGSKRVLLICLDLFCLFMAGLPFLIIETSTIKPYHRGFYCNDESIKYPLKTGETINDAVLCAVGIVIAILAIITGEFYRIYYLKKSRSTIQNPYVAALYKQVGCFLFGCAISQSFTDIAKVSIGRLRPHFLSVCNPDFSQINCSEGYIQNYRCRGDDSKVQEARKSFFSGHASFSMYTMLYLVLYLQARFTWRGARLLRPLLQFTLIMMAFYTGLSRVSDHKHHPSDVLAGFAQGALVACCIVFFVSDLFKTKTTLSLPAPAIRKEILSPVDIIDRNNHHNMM

VCIP = VCIP mRNA induction by growth factors and cytokines in monolayer cells; type: cell-based, human
Method: FIGS. 1A-M show expression analysis and predicted amino acid sequence of VEGF and type I collagen inducible protein (VCIP). FIG. 1A: HUVECs were embedded into three-dimensional type I collagen gel in the presence of 20% adult human serum, 1× ITS and stimulated with VEGF^165 (100 ng/ml). Total RNA was prepared at the indicated time points. Northern blots were hybridized with a fragment of the VCIP (clone-33A) cDNA probe. The transcript size (3.4 kb) is indicated on the right. The numbers at the bottom of the gel represent the fold increase in VCIP mRNA levels, as compared with untreated cells. […] Total RNA was isolated at indicated time points and subjected to VCIP northern blot analysis. […] FIG. 1E: Poly(A)^+ RNA prepared from various human tissues was subjected to VCIP northern blot analysis by hybridization with the clone-33A cDNA probe. FIG. 1F: The blot shown in FIG. 1E was re-hybridized with a GAPDH probe, showing that equal amounts of RNA were loaded across the lanes. FIG. 1G: Detection of VCIP mRNA by RT-PCR (20 cycles): monolayer endothelial cells were treated for 30 min with: (1) untreated, (2) bFGF (20 ng/ml), (3) VEGF^165 (100 ng/ml), (4) PMA (20 ng/ml), (5) bFGF (20 ng/ml)+VEGF (100 ng/ml), (6) bFGF (20 ng/ml)+PMA (20 ng/ml), (7) VEGF (100 ng/ml)+PMA (20 ng/ml) and (8) bFGF (20 ng/ml)+VEGF (100 ng/ml)+PMA (20 ng/ml). FIGS. 1H-J: RT-PCR analysis of uPAR mRNA (FIG. 1H), β-actin mRNA (FIG. 11) and GAPDH mRNA levels (FIG. 1J) were carried out under the same conditions as described in FIG. 1G. All experiments were repeated at least three times, with similar results. FIG. 1K: Inserts from six recombinant_phage clones are shown, and the relative position of clone 33A is indicated. FIG. 1L: The complete predicted amino acid sequence of VCIP. The putative transmembrane segments are underlined. The N-linked glycosylation site is indicated by an asterisk. The lipid phosphatase catalytic domain is indicated by bold letters and underlined, and the RGD motif is boxed. FIG. 1M: The amino acid sequence of human VCIP (top) is aligned with other proteins containing lipid phosphatase-like catalytic motifs.
FIGS. 3A-F show VCIP induction by growth factors and cytokines. Indicated monolayer cells were stimulated with various growth factors and cytokines for 6 h in media M199 containing 10% serum+1× ITS. The concentrations of cytokines used were optimized according to their ability to induce Erk2 phosphorylation in western blot analysis: VEGF^165 (100 ng/ml), EGF (20 ng/ml), bFGF (30 ng/ml), TNF-α (15 ng/ml), PMA (10 ng/ml) and IL-1β (25 ng/ml). Total RNA (20 μg per lane) was subjected to northern blot analysis by hybridization with the indicated probes. The uPAR northern blot was included as a control for the cytokines used. Ethidium bromide-stained gels show equal amounts of RNA used (FIGS. 3C and F). Data shown are representative of those obtained in two or three separate experiments.
VCIP mRNA was most strongly expressed in human heart and placenta, tissues that are highly vascularized (FIG. 1E). Next, expression of VCIP in monolayer endothelial cells treated with bFGF, VEGF and PMA was examined (FIG. 1G). […] This pattern of regulation was identical to that of the human receptor for urokinase plasminogen activator (uPAR) expression (FIG. 1H). β-actin and GAPDH were included as controls and were not regulated under any of these conditions (FIGS. 1I and J).
To examine VCIP expression by other cell types, endothelial, smooth muscle and epithelial cells (A431) were stimulated in monolayer with various growth factors and cytokines for 6 h. Total RNA was then isolated and subjected to northern blot analysis for VCIP and uPAR (FIG. 3).

endothelial cells [2] = assay: Adhesion of endothelial cells to wells coated with GST fusion proteins; type: cell-based, human; settings: pretreatment 20 μg/ml for 1 h and continued exposure
Method: FIG. 10A: Affinity purified GST-fusion proteins were resolved on SDS±PAGE and stained with Coomassie Blue. FIG. 10B: Integrins were immobilized onto 96-well plates, and various GST-fusion proteins (ligands) were allowed to bind. Bound ligands were incubated with anti-GST antibodies, appropriate substrate added and the color intensity measured. OD values <0.05 were considered to be background binding. Data are expressed as mean±SD (n=4). FIG. 10C: Dose-dependent binding of αvβ3 integrin with recombinant GST-VCIP-RGD. FIGS. 10D-F: Representative photomicrographs of adhesion and spreading of endothelial cells replated onto dishes coated with either fibronectin (FIG. 9D), vitronectin (FIG. 9E) or GST-VCIP-RGD (FIG. 9F). […] Attached cells were stained, washed and absorbances of eluted dyes measured. […] Attached cells were stained, washed and absorbances of eluted dyes determined. […] Data are expressed as mean±S.D.; diamond, P<0.01; asterisk, P<0.001. […]
For adhesion blocking assays, endothelial cells were detached, washed with PBS and resuspended in M199 media containing 1 mM CaCl2 and 1 mM MgCl2 in the absence of serum or growth factors. […] Absorbances were measured at 540 nm.
Next, the capacity of VCIP-RGD to bind endothelial cell integrins was evaluated by determining the effect of GST-VCIP fusion proteins on cell adhesion and spreading.

[3] = test system: HEK cells stably expressing pLNCX2-VCIP-RGD (WT); assay: Cell aggregation of HEK cells stably expressing VCIP constructs (Table 1); type: cell-based; settings: for size, speed of formation and number of cell aggregates: continuous presence, antibody 25-50 μl/ml, peptides 10-50 nM; for % cell aggregates: WT cells, 48 h, mean ± SD
Method: WT cells were also incubated with several peptides modeled after the VCIP-RGD region. When WT cells were cultured in the continuous presence of an anti-VCIP-RGD antibody (25-50 μl/ml) and NYRCRGDDSK (SEQ ID NO:20) (10-50 nM), the size, the speed of formation and the number of such cell aggregates were reduced (Table 1).

[4] = A431 epidermoid carcinoma cells, 6 h, northern blot
[5] = monolayer endothelial cells, RT-PCR, 30 min

Compound: O=C(O)CN(CCN(CC(=O)O)CC(=O)O)CC(=O)O [EDTA, reference compound]
- detachment of endothelial cells adhered to VCIP (endothelial cells [1]; 2.5 mM (pH 7.4) for 5 min): caused the cells to detach from tissue culture dishes

Compound: CCN1C(=O)C=CC1=O [N-ethylmaleimide]
- effect on phosphatase activity against phosphatidic acid (PAP2b): insensitive

Compound: CCCCCCCCCCCCCC(=O)O[C@@H]1[C@@H](C)[C@@]2(O)[C@@H](C=C(CO)C[C@]3(O)C(=O)C(C)=C[C@@H]23)[C@@H]2C(C)(C)[C@]12OC(C)=O [PMA]
- induction of VCIP expression (VCIP; [4]): strongly induced
- induction of VCIP expression (VCIP; AoSMC, 6 h, northern blot): did not
- induction of VCIP expression (VCIP; CASMCs, 6 h, northern blot): Neither PMA nor VEGF^165 induced expression of VCIP
- induction of VCIP expression (VCIP; [5]): equally able to induce expression of VCIP

Compound: C[C@@H]1C[C@@H]([C@H](O)CC2CC(=O)NC(=O)C2)C(=O)[C@@H](C)C1 [cycloheximide, reference compound]
- total number of attached cells (endothelial cells [2]): did not decrease the total number of attached cells

Compound: CC(C)NCC(O)COc1cccc2ccccc12 (centres unmarked) [propranolol]
- effect on phosphatase activity against phosphatidic acid (PAP2b): blocked

Compound: CCCCCCCCCCCCC/C=C/[C@@H](O)[C@@H](N)CO [sphingosine]
- effect on phosphatase activity against phosphatidic acid (PAP2b): blocked

Compound: NYRCRADDSK (CHAIN a peptide containing a mutated RGD sequence)
- size, speed of formation and number of cell aggregates [3]: no reduction in cell aggregation
- % cell aggregates ([3]; substance 10 nM): 92 ± 5.7%
- % cell aggregates ([3]; substance 30 nM): 89 ± 7.5%
- % cell aggregates ([3]; substance 50 nM): 90 ± 7.2^a %

Compound: NYRCRGDDSK (CHAIN a peptide containing RGD sequence)
- size, speed of formation and number of cell aggregates [3]: reduced
- % cell aggregates ([3]; substance 10 nM): 67 ± 15.7%
- % cell aggregates ([3]; substance 30 nM): 46 ± 13.3%
- % cell aggregates ([3]; substance 50 nM): 28 ± 10.5^a %

Compound: NYRCRGDDSKVQE (also: acetylated) [acetylated NYRCRGDDSKVQE (VCIP-RGD)]
- detachment of attached cells from VCIP-RGD-coated wells (endothelial cells [1]; 5 nM): eventually completely detached from the wells
- time until attached cells rounded up (endothelial cells [1]; 5 nM, cells plated on VCIP-RGD-coated wells): ≤ 5 min

Compound: NYRCRGEDSK (CHAIN a peptide containing a mutated RGD sequence)
- size, speed of formation and number of cell aggregates [3]: no reduction in cell aggregation

Compound: TNF-α
- induction of VCIP expression (VCIP; [4]): had no effect

Compound: bFGF: Basic Fibroblast growth factor
- induction of VCIP expression (VCIP; [4]): had no effect
- induction of VCIP expression (VCIP; [5]): equally able to induce expression of VCIP
